Results taken from patent US10647713B2 (Nimbus Lakshmi, Inc., priority 2016, dated 2020).

biological target: human TYK2 (JH2domain-pseudokinase) (Homo sapiens (Human), UniProt P29597); assay: TYK2 JH2 Domain Binding Assay (KINOMEscan, DiscoveRx); details: 11-point dilution, duplicate
Summary of the method: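 TYK2 JH2 (G556–D888)–NFkB DBD fusion, DNA-tagged, from HEK293 extracts (<0.1 nM) competed against immobilised biotinylated ligand for 1 h at room temperature, 0.9% DMSO. Bead-retained kinase quantified by qPCR; Kd from 11-point 3-fold series (top 30,000 nM, duplicate), Hill fit with slope −1.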

Chain of human TYK2 (JH2domain-pseudokinase) (P29597 556-888): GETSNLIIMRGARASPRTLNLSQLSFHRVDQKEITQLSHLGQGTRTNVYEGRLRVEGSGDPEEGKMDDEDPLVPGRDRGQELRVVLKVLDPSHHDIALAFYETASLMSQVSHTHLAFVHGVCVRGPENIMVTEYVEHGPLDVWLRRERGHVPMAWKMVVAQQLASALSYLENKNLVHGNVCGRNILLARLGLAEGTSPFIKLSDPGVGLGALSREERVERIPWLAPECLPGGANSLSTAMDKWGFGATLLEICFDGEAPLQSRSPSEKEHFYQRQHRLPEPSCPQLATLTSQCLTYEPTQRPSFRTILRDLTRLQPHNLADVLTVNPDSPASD

| Kd [nM] | Structure (SMILES) |
| --- | --- |
| 0.1 to 0.5 | Cc1cc(Nc2cc(Nc3ccc(-c4c(C)nn(C)c4C)cc3S(C)(=O)=O)c3nc(C)[nH]c3n2)nc(C)n1 [I-344] |
| 0.1 to 0.5 | Cc1cc(Nc2cc(Nc3ccc(-c4c(C)nn(C)c4C)cc3S(C)(=O)=O)c3nc(C(F)F)[nH]c3n2)nc(C)n1 [I-345] |
| > 10 | Cc1nc2c(Nc3ccc(C4=NC(C)(C)CS4)cc3S(C)(=O)=O)cc(NC(=O)C3CC3(F)F)nc2[nH]1 (stereo not shown) [I-346] |
| 0.1 to 0.5 | Cc1nn(C)c(C)c1-c1ccc(Nc2cc(Nc3cccc(C#N)n3)nc3[nH]c(C(F)F)nc23)c(S(C)(=O)=O)c1 [I-347] |
| 0.1 to 0.5 | Cc1nc2c(Nc3ccc([C@@H]4CCCO4)cc3S(C)(=O)=O)cc(NC(=O)C3CC3(F)F)nc2[nH]1 (stereo partly drawn) [I-348, 2,2-difluoro-N-(2-methyl-7-((2-(methylsulfonyl)-4-((S)-tetrahydrofuran-2-yl)phenyl)amino)-3H-imidazo[4,5-b]pyridin-5-yl)cyclopropane-1-carboxamide] |
| 1 to 10 | COc1c(Nc2cc(Nc3cccc(C#N)n3)nc3[nH]c(C(F)F)nc23)cccc1-c1nc(C)cs1 [I-349] |
| 0.1 to 0.5 | Cc1c(-c2ccc(Nc3cc(NC(=O)C4CC4)nc4[nH]c(C(F)F)nc34)c(S(C)(=O)=O)c2)nn(C)c1C [I-350] |
| > 10 | CC1(C)CSC(c2ccc(Nc3cc(NC(=O)C4CC4(F)F)nc4[nH]c(C(F)F)nc34)c(S(C)(=O)=O)c2)=N1 (stereo not shown) [I-351, N-(2-(difluoromethyl)-7-((4-(4,4-dimethyl-4,5-dihydrothiazol-2-yl)-2-(methylsulfonyl)phenyl)amino)-3H-imidazo[4,5-b]pyridin-5-yl)-2,2-difluorocyclopropane-1-carboxamide] |
| 0.1 to 0.5 | Cc1nc2c(Nc3ccc(-c4ncc(C)n4C)cc3S(C)(=O)=O)cc(Nc3cccc(C#N)n3)nc2[nH]1 [I-352] |
| 0.1 to 0.5 | CC1(C)CC[C@@H](c2ccc(Nc3cc(NC(=O)C4CC4)nc4[nH]c(C(F)F)nc34)c(S(C)(=O)=O)c2)OC1 [I-353] |
| 1 to 10 | CC1(C)CC[C@H](c2ccc(Nc3cc(NC(=O)C4CC4)nc4[nH]c(C(F)F)nc34)c(S(C)(=O)=O)c2)OC1 [I-354] |
| 0.1 to 0.5 | Cc1nc2c(Nc3ccc(-c4c(C)nn(C)c4C)cc3S(C)(=O)=O)cc(Nc3cccc(C#N)n3)nc2[nH]1 [I-355] |
| 0.1 to 0.5 | CC1(C)CCC(c2ccc(Nc3cc(NC(=O)C4CC4)nc4[nH]c(C(F)F)nc34)c(S(C)(=O)=O)c2)OC1 (stereo not shown) [I-356] |
| 1 to 10 | Cc1nc2c(Nc3ccc(C4CC(C)(C)OC(C)(C)C4)cc3S(C)(=O)=O)cc(NC(=O)C3CC3)nc2[nH]1 [I-357] |
| > 10 | CS(=O)(=O)c1cc(C2CCC2)ccc1Nc1cc(NC(=O)C2CC2(F)F)nc2[nH]c(C(F)F)nc12 (stereo not shown) [I-358, N-(7-((4-cyclobutyl-2-(methylsulfonyl)phenyl)amino)-2-(difluoromethyl)-3H-imidazo[4,5-b]pyridin-5-yl)-2,2-difluorocyclopropane-1-carboxamide] |
| 1 to 10 | CS(=O)(=O)c1cc([C@@H]2CCCOC2)ccc1Nc1cc(NC(=O)C2CC2(F)F)nc2[nH]c(C(F)F)nc12 (stereo partly drawn) [I-359, N-(2-(difluoromethyl)-7-((2-(methylsulfonyl)-4-((S)-tetrahydro-2H-pyran-3-yl)phenyl)amino)-3H-imidazo[4,5-b]pyridin-5-yl)-2,2-difluorocyclopropane-1-carboxamide] |
| 1 to 10 | CS(=O)(=O)c1cc([C@H]2CCCOC2)ccc1Nc1cc(NC(=O)C2CC2(F)F)nc2[nH]c(C(F)F)nc12 (stereo partly drawn) [I-360, N-(2-(difluoromethyl)-7-((2-(methylsulfonyl)-4-((R)-tetrahydro-2H-pyran-3-yl)phenyl)amino)-3H-imidazo[4,5-b]pyridin-5-yl)-2,2-difluorocyclopropane-1-carboxamide] |

| Kd [nM] | Structure (SMILES) |
| --- | --- |
| 1 to 10 | Cc1nc2c(Nc3ccc(C4CCC4)cc3S(C)(=O)=O)cc(NC(=O)C3CC3(F)F)nc2[nH]1 (stereo not shown) [I-361, N-(7-((4-cyclobutyl-2-(methylsulfonyl)phenyl)amino)-2-methyl-3H-imidazo[4,5-b]pyridin-5-yl)-2,2-difluorocyclopropane-1-carboxamide] |
| 0.1 to 0.5 | CN=S(C)(=O)c1ccccc1Nc1cc(NC(=O)C2CC2)nc2[nH]c(C(F)F)nc12 (stereo not shown) [I-362] |
| 1 to 10 | Cc1nc2c(Nc3ccc(-c4nn(C)cc4C)cc3S(C)(=O)=O)cc(NC(=O)C3CC3(C)C)nc2[nH]1 (stereo not shown) [I-363, N-(7-((4-(1,4-dimethyl-1H-pyrazol-3-yl)-2-(methylsulfonyl)phenyl)amino)-2-methyl-3H-imidazo[4,5-b]pyridin-5-yl)-2,2-dimethylcyclopropane-1-carboxamide] |
| 1 to 10 | Cc1cn(C)nc1-c1ccc(Nc2cc(NC(=O)C3CC3(C)C)nc3[nH]c(C(F)F)nc23)c(S(C)(=O)=O)c1 (stereo not shown) [I-364, N-(2-(difluoromethyl)-7-((4-(1,4-dimethyl-1H-pyrazol-3-yl)-2-(methylsulfonyl)phenyl)amino)-3H-imidazo[4,5-b]pyridin-5-yl)-2,2-dimethylcyclopropane-1-carboxamide] |
| 0.5 to 1 | CS(=O)(=O)c1cc(C2CCCCO2)ccc1Nc1cc(Nc2cccc(C(F)(F)F)n2)nc2[nH]c(C(F)F)nc12 (stereo not shown) [I-365, 2-(difluoromethyl)-N7-(2-(methylsulfonyl)-4-(tetrahydro-2H-pyran-2-yl)phenyl)-N5-(6-(trifluoromethyl)pyridin-2-yl)-3H-imidazo[4,5-b]pyridine-5,7-diamine] |
| < 0.1 | Cc1cc(Nc2cc(Nc3ccc(C4CCCCO4)cc3S(C)(=O)=O)c3nc(C(F)F)[nH]c3n2)nc(C)n1 (stereo not shown) [I-366, 2-(difluoromethyl)-N5-(2,6-dimethylpyrimidin-4-yl)-N7-(2-(methylsulfonyl)-4-(tetrahydro-2H-pyran-2-yl)phenyl)-3H-imidazo[4,5-b]pyridine-5,7-diamine] |
| < 0.1 | Cc1cc(Nc2cc(Nc3ccc(C4CCCCO4)cc3S(C)(=O)=O)c3nc(C)[nH]c3n2)nc(C)n1 (stereo not shown) [I-367, N5-(2,6-dimethylpyrimidin-4-yl)-2-methyl-N7-(2-(methylsulfonyl)-4-(tetrahydro-2H-pyran-2-yl)phenyl)-3H-imidazo[4,5-b]pyridine-5,7-diamine] |
| 0.1 to 0.5 | CN(c1cc(C2CCCCO2)ccc1Nc1cc(NC(=O)C2CC2)nc2[nH]c(C(F)F)nc12)S(C)(=O)=O (stereo not shown) [I-369, N-(2-(difluoromethyl)-7-((2-(N-methylmethylsulfonamido)-4-(tetrahydro-2H-pyran-2-yl)phenyl)amino)-3H-imidazo[4,5-b]pyridin-5-yl)cyclopropanecarboxamide] |
| 0.1 to 0.5 | CN(c1cc(-c2cncn2C)ccc1Nc1cc(NC(=O)[C@H]2C[C@@H]2F)nc2[nH]c(C(F)F)nc12)S(C)(=O)=O [I-370, (1R,2S)—N-(2-(difluoromethyl)-7-((4-(1-methyl-1H-imidazol-5-yl)-2-(N-methylmethylsulfonamido)phenyl)amino)-3H-imidazo[4,5-b]pyridin-5-yl)-2-fluorocyclopropane-1-carboxamide] |
| 0.1 to 0.5 | Cn1ccc(-c2ccc(Nc3cc(NC(=O)[C@H]4C[C@@H]4F)nc4[nH]c(C(F)F)nc34)c(S(C)(=O)=O)c2)n1 [I-371, (1R,2S)—N-(2-(difluoromethyl)-7-((4-(1-methyl-1H-pyrazol-3-yl)-2-(methylsulfonyl)phenyl)amino)-3H-imidazo[4,5-b]pyridin-5-yl)-2-fluorocyclopropane-1-carboxamide] |
| 0.5 to 1 | Cc1nc2c(Nc3ccc(-c4cnn(C)c4)cc3N(C)S(C)(=O)=O)cc(NC(=O)[C@H]3C[C@@H]3F)nc2[nH]1 [I-372, (1R,2S)-2-fluoro-N-(2-methyl-7-((4-(1-methyl-1H-pyrazol-4-yl)-2-(N-methylmethylsulfonamido)phenyl)amino)-3H-imidazo[4,5-b]pyridin-5-yl)cyclopropane-1-carboxamide] |
| 1 to 10 | COc1c(Nc2cc(NC(=O)[C@H]3C[C@@H]3F)nc3[nH]c(C)nc23)cccc1-c1ncn(C)n1 [I-373, (1R,2S)-2-fluoro-N-(7-((2-methoxy-3-(1-methyl-1H-1,2,4-triazol-3-yl)phenyl)amino)-2-methyl-3H-imidazo[4,5-b]pyridin-5-yl)cyclopropane-1-carboxamide] |
| 0.1 to 0.5 | Cc1nc2c(Nc3ccc(C4CCCCO4)cc3N(C)S(C)(=O)=O)cc(NC(=O)C3CC3)nc2[nH]1 (stereo not shown) [I-375, N-(2-methyl-7-((2-(N-methylmethylsulfonamido)-4-(tetrahydro-2H-pyran-2-yl)phenyl)amino)-3H-imidazo[4,5-b]pyridin-5-yl)cyclopropanecarboxamide] |
| > 10 | Cc1nc2c(Nc3ccc(-c4cnn(C)c4)cc3N(C)S(C)(=O)=O)cc(NC(=O)C3CC3(F)F)nc2[nH]1 (stereo not shown) [I-376, 2,2-difluoro-N-(2-methyl-7-((4-(1-methyl-1H-pyrazol-4-yl)-2-(N-methylmethylsulfonamido)phenyl)amino)-3H-imidazo[4,5-b]pyridin-5-yl)cyclopropane-1-carboxamide] |
| 0.5 to 1 | Cc1nc2c(Nc3ccc(-c4ccn(C)n4)cc3S(C)(=O)=O)cc(NC(=O)C3CC3(F)F)nc2[nH]1 (stereo not shown) [I-377, 2,2-difluoro-N-(2-methyl-7-((4-(1-methyl-1H-pyrazol-3-yl)-2-(methylsulfonyl)phenyl)amino)-3H-imidazo[4,5-b]pyridin-5-yl)cyclopropane-1-carboxamide] |
| 0.5 to 1 | Cc1nc2c(Nc3ccc(-c4cn(C)cn4)cc3S(C)(=O)=O)cc(NC(=O)C3CC3(F)F)nc2[nH]1 (stereo not shown) [I-378, N-(7-((4-(1l2-imidazol-4-yl)-2-(methylsulfonyl)phenyl)amino)-2-methyl-3H-imidazo[4,5-b]pyridin-5-yl)-2,2-difluorocyclopropane-1-carboxamide] |
| 0.1 to 0.5 | Cn1cncc1-c1ccc(Nc2cc(NC(=O)C3CC3(F)F)nc3[nH]c(C(F)F)nc23)c(S(C)(=O)=O)c1 (stereo not shown) [I-379, N-(2-(difluoromethyl)-7-((4-(1-methyl-1H-imidazol-5-yl)-2-(methylsulfonyl)phenyl)amino)-3H-imidazo[4,5-b]pyridin-5-yl)-2,2-difluorocyclopropane-1-carboxamide] |
